{
  "source": "patent US8349553B2",
  "about": "“Jasmonate based assays for identifying compounds that selectively inhibit mitochondrial bound hexokinases” (Ramot at Tel Aviv University Ltd., priority 2007, dated 2013)",
  "key": {"[1]": {"test_system": "mitochondrial fraction isolated from CT-26 tumors", "experiment": "Cytochrome c release from mitochondrial fraction", "assay_type": "biochemical, murine", "details": "3 mM", "experimental": "Freshly isolated mitochondrial fraction, at a final concentration of 2 mg/ml in a volume of 100 μL, was incubated at 37° C. with the examined agent, e.g. methyl jasmonate, in a KCl-based respiratory buffer (150 mM KCl, 25 mM NaHCO3, 1 mM MgCl2, 3 mM KH2PO4, 20 mM Hepes, pH 7.4; Pastorino, 2002). Potassium succinate (5 mM) was added as respiratory substrate (Azoulay-Zohar, 2004). For the determination of cytochrome c release, mitochondrial fraction was pelleted at 20,000×g for 10 minutes at 4° C. Pellets were incubated for 40 minutes with lysis buffer (Tris HCl, pH 8, 20 mM, NaCl 137 mM, EDTA 2 mM, pH 8, 1% Triton-X-100, Protease Inhibitors cocktail: Sigma) on ice (Fingrut, 2005). Pellet lysates and supernatants were separated on 12% SDS-PAGE gels and electroblotted onto nitrocellulose membranes. Cytochrome c was detected by specific antibody (1:1000, BD PharMingen, San Diego, Calif.). Antigen-antibody complexes were stained with horseradish peroxidase-conjugated antibody (1:10,000, Santa Cruz Biotechnology, CA) and enhanced chemiluminescence (ECL) reagent (EZ-ECL, Biological Industries, Beit Haemek, Israel), and exposed to ECL film (Eastman Kodak, Rochester, N.Y., U.S.A.). Cytochrome c release from mitochondrial fraction isolated from CT-26 tumors occurred within the same time frame (15-60 minutes) required to detach hexokinase from mitochondria (FIG. 3). […]"}, "CT26 cells": {"test_system": "CT26 cells", "experiment": "Cellular ATP levels (CellTiter-Glo), CT26", "assay_type": "cell-based, murine", "details": "60 minutes of exposure, indicated concentrations (FIG. 4A)", "experimental": "The CellTiter-Glo™ Luminescent Cell Viability Assay (Promega, Madison, Wis., U.S.A.) was employed (Fingrut, 2005). Upon completion of a given experiment, plates were equilibrated to room temperature. CellTiter-Glo™ reagent containing luciferin and luciferase was added to each well and the plates were mixed on an orbital shaker for 2 minutes to induce cell lysis. In the presence of ATP, Mg^2+ and molecular oxygen, mono-oxidation of luciferin is catalyzed by luciferase, generating a luminescence signal. Cells were then incubated for 10 minutes at room temperature to stabilize the luminescence signal. Luminescence was recorded using Kodak digital science—Image station 440 CD. Luminescence is directly proportional to ATP concentration. ATP depletion (% of control) was calculated in the following way: {(luminescence of control cells−luminescence of drug-treated cells)/luminescence of control cells}×100. In order to test the correlation between cellular ATP levels and the release of hexokinase from mitochondrial fraction different cancer cells, namely Molt-4 cells, BCL-1 leukemic cells and B16 melanoma tumors were exposed to various methyl jasmonate concentrations. […] CT26 and Molt-4 cells were then seeded in 24 well plates. CT26 cells were allowed to adhere over night. Cells were exposed to methyl jasmonate (MJ; 3 mM) for 1 hour. Trypan blue exclusion test was performed and cells were counted."}, "lymphomas": {"test_system": "lymphomas", "details": "mice; cited from earlier work"}, "[2]": {"test_system": "rabbit immunoglobulin G (Rb IgG)", "experiment": "Surface plasmon resonance, irrelevant protein control", "assay_type": "binding", "details": "6 mM and 3 mM", "experimental": "SPR using ProteOn-EP5 (Bio-Rad, Hercules, Calif., USA) system has been applied to study the direct interaction of methyl jasmonate with hexokinase. This system allowed measuring ligand-analyte interactions in a 6×6 format in real time. Purified rat brain HKI and rabbit immunoglobulin G (Rb IgG; ligands) were diluted in 10 mM Na acetate pH 4 and 4.5, respectively, and coupled to a GLM sensor surface activated with 37.5 mg/ml N-Ethyl-N′-(3′ dimethylaminopropyl) carbodiimide hydrochloride and 7.5 mg/ml N-hydroxysuccinimide. HKI and IgG were added to saturate the chip at 100 μg/ml. Remaining reactive groups on the chip were then inactivated with 1 M ethanolamine pH 8.5. […] Methyl jasmonate and jasmonic acid (analytes) were diluted in running buffer (PBS X 1 with 0.005% Tween and 5% DMSO) and injected onto the sensor chip at varying concentrations. All experiments were performed at flow rate of 50 μl/min, at 25° C."}, "[3]": {"test_system": "HKI and HKII (mitochondrial fraction of B16 tumors)", "experiment": "Western blot of supernatants with anti-HKI and anti-HKII, B16 tumor mitochondrial fraction", "assay_type": "biochemical, murine", "details": "B16 tumor mitochondrial fraction supernatant", "experimental": "For analysis of hexokinase levels, the experiments were performed similarly to hexokinase detachment assay described above, and unbound hexokinase in the supernatant fraction was extracted as described in Fingrut (2005). Samples were separated by sodium dodecylsulfate-polyacrylamide gel (7%) electrophoresis followed by immunoblotting. The blots were probed with specific anti-HKI or anti-HKII antibodies (1:300, Santa-Cruz Biotechnology, CA, USA). Hexokinase-antibody complexes were stained with HRP-conjugated antibody (1:10,000, Santa-Cruz Biotechnology, CA, USA). Enhanced chemiluminescence (ECL) reagent (Biological Industries, Beit Haemek, Israel) was added, and the blots were exposed to ECL film (Eastman Kodak, Rochester, N.Y., USA). Hexokinase detachment from mitochondrial fraction is not limited to CT-26 colon carcinoma. Mitochondrial fractions isolated from different cancer cells, namely Molt-4 cells, BCL-1 leukemic cells and B16 melanoma tumors were incubated for 30 minutes at 37° C., and the activity of unbound hexokinase was measured and compared to the activity of spontaneously (control) detached hexokinase. […] The supernatant of the experiments were separated on SDS-PAGE and probed with anti-HKI and anti-HKII antibodies."}},
  "data": [
    {"smiles": "CC/C=C\\CC1C(=O)CCC1CC(=O)OC", "note": "(stereo not drawn) [methyl jasmonate]", "values": [
      {"measurement": "time frame of cytochrome c release", "setting": "[1]; CT-26 tumor mitochondrial fraction", "value": "15 to 60", "unit": "min"},
      {"measurement": "release of cytochrome c from isolated mitochondrial fraction", "setting": "[1]; CT-26 tumor, 37° C.", "value": "caused time-dependent release of cytochrome c"},
      {"measurement": "cellular ATP level", "setting": "CT26 cells", "value": "depletes cellular ATP"},
      {"measurement": "prevention of the development of lymphomas", "setting": "lymphomas", "value": "effective in preventing the development of lymphomas in mice"},
      {"measurement": "binding to immobilized Rb IgG (SPR)", "setting": "[2]", "value": "binds to hexokinase but not to Rb IgG"},
      {"measurement": "detachment of hexokinase confirmed by immunoblot (anti-HKI, anti-HKII)", "setting": "[3]", "value": "detachment of hexokinase from mitochondrial fraction of the various cancer cells was further confirmed"}
    ]}
  ]
}
